Measurements reported in PMC5342196 (PLoS ONE, 2017).

Tested on: Lac161_ORF7
Test: glucose release, glucose oxidase/peroxidase assay
Type: biochemical, metagenome: corn field soil
Conditions: 100 mM MES pH 6.0, 50 °C (methods print Lac161_ORF3 for this temperature), 30 min

SMILES: OC[C@H]1O[C@@H](O[C@H]2[C@H](O)[C@@H](O)C(O)O[C@@H]2CO)[C@H](O)[C@@H](O)[C@H]1O (stereo partly shown) [lactose]
- Km: 1800 µM
